Publication PMC7503848 (International Journal of Molecular Sciences, 2020)
Read-outs that look alike come from different tables or passages of the source. No end group written: not given here.

Columns and labels:
[1] = target: Myosin A-pTRGnn (myosin A tail, bacterial two-hybrid fusion) (Plasmodium falciparum) (UniProt Q8IDR3); test: two-hybrid; bacterial two-hybrid, liquid β-galactosidase assay, relative Miller units, average of three assays
myosin A tail [2] = type: cell-based, Plasmodium falciparum
MTIP = MTIP (Plasmodium falciparum, UniProt Q8I4W8); test: Competitive ITC, pre-bound Myosin A-ZA1 complex into MTIP; type: binding; conditions: complex in syringe, MTIP in cell
Experimental: Figure S1: Myosin A tail and expression of MTIP. (a) Synthesized Myosin A tail peptide (2.5 kDa) resolved on Tris-tricine polyacrylamide gel.
(b) Purified MTIP-His by Ni-NTA Column chromatography. Commassie stained 15% polyacrylamide gel. Lane M: Marker, Lane 1: Purified MTIP. (17.4 kDa). Western blot of purified MTIP-His using anti-MTIP.
Figure S2: Negative control for ELISA and ITC experiments. (a) 500 ng non-specific Mycobacterial protein ESAT6 was coated on ELISA plates and indicated concentrations of ZA1 and MTIP were overlaid respectively. No interaction was observed between the coated and overlaid proteins. (b) The raw calorimetric data denoting the amount of heat produced following each injection of Myosin A from syringe into cell containing buffer only. No heat changes were observed when Myosin A was added into buffer. (c) Heat changes for competitive binding when pre-bound Myosin A-ZA1 complex is titrated from syringe into MTIP in the cell. […]
break when added into MTIP. […]

myosin A tail [3] = test: ELISA-based interaction assay, ZA1 on coated myosin A tail; type: binding, Plasmodium falciparum; conditions: 500 ng myosin A tail coated, ZA1-His 0–2.5 µM overlaid, 2 h 37 °C, anti-His, 450 nm, triplicates
Text: The interaction between myosin A tail and ZA1 was confirmed through multiple protein–protein interaction studies. […] For this, myosin A tail was coated on the ELSIA plates, followed by overlaying of ZA1. After stringent washing, the binding of overlaid ZA1 protein was detected using an anti-His antibody.
(§1) All wells were put up in triplicates.

myosin A/MTIP complex [4] = test: Competitive ELISA, inhibition of myosin A/MTIP interaction; type: binding, Plasmodium falciparum; conditions: 500 ng myosin A tail coated, MTIP 1 µM, ZA1 0, 0.5, 1, 2, 5 µM, 2 h 37 °C, anti-MTIP, 450 nm, triplicates
Experimental: For ELISA-based inhibition of the interaction between MyoA/MTIP complex using ZA1, 500 ng peptide was coated on Maxisorb ELISA plates, followed by overnight blocking at 4 °C. The bound peptide was overlaid with MTIP (1 µM) for 2 h at 37 °C. The plates were washed with wash buffer (1 × PBS, 0.05% Tween-20) thrice and overlaid with increasing concentrations of ZA1 (0 µM, 0.5 µM, 1 µM, 2 µM, 5 µM) for 2 h at 37 °C. […] Optical density was taken at 450 nm. All wells were put in triplicates.

myosin A tail [5] = test: Isothermal titration calorimetry, myosin A tail into ZA1; type: binding, Plasmodium falciparum; conditions: ITC200, 25 °C, phosphate buffer; 150 µM myosin A tail in syringe, 10 µM ZA1 in cell; single site model
Experimental: ITC experiments were performed using ITC200 Microcalorimeter (Malvern, UK) at 25 °C in phosphate buffer. The cell and syringe volumes were kept 310 µL and 40 µL, respectively. The syringe was loaded with 100 µM MyoA tail for MyoA/MTIP interaction study and 150 µM for MyoA/ZA1 interaction. The sample cell was loaded with 10 µM each of MTIP and ZA1. MTIP and ZA1 were titrated using MyoA tail in injections of 2 µL each except for the first injection that was 0.4 µL. In between each titration, a 150-s interval for stirring was kept to ensure that the signal returns to baseline. Throughout the experiment, constant stirring at 300 rpm was maintained to ensure proper mixing of reaction components. For both experiments, a corresponding buffer control was also set up in which PBS was taken in the syringe. The enthalpy changes of titrations were measured, and the baseline values were subtracted from the test samples. The data analysis was carried out using Origin software and curve-fitted to obtain stoichiometry (N), dissociation constant (Kd), and enthalpy change (ƍH).

myosin A-MTIP complex = test: Competitive ITC, pre-bound myosin A-MTIP complex into ZA1; type: binding, Plasmodium falciparum; conditions: 25 °C, pre-bound myosin A-MTIP complex (150 µM each) in syringe, 10 µM ZA1 in cell
Experimental: For the competitive ITC experiment, a pre-bound complex of MyoA-MTIP in an equal molar ratio (150 µM each) was taken in the syringe. The complex was used to titrate ZA1 (10 µM) present in the cell. As a control, the pre-bound MyoA-MTIP complex was titrated in buffer only. All parameters were kept identical to the one-on-one ITC experiment. Origin software was used for data analysis and for calculating binding parameters like stoichiometry (N), binding constant (Kd), and enthalpy change (ƍH).

myosin A/MTIP complex [6] = test: Bacterial three-hybrid assay, disruption of myosin A/MTIP complex; type: cell-based, Plasmodium falciparum
Text: For bacterial three-hybrid experiments, MyoA-pTRG and MTIP-pBT were used to co-transform R1 competent cells. The resulting co-transformants were checked for the presence of both plasmids by PCR using gene and vector-specific primers (MyoA For/pTRG Rev, MTIP For/pBT Rev). The resulting blue colonies were used to prepare competent cells that were subsequently transformed with ZA1-pMTSA or control pMTSA plasmid and plated on X-gal indicator plates, both in the presence or absence of L-arabinose (2% w/v). The plates were incubated at 30 °C for 48 h. The color of the colonies indicated the formation or disruption of myosin A/MTIP complex. The background and validation of bacterial three-hybrid assay have been described previously.
An arabinose gradient assay in liquid culture was performed, as described previously. Briefly, the mid-log phase culture was induced with varying concentrations of L-arabinose (0–4 mM) for 3 h at 37 °C. The cells were pelleted, and the levels of β-galactosidase were measured. E. coli BL21 (DE3) cells were induced with varying concentrations of L-arabinose (as described in the arabinose gradient assay). Whole-cell lysates of a 10 mL culture were used to analyze the expression of ZA1 using an anti-His antibody (1:2000 dilution).

ESAT6 [7] = test: ELISA-based specificity control with unrelated protein ESAT6; type: binding, Mycobacterium tuberculosis; conditions: 500 ng ESAT6 coated, test protein overlaid, 450 nm
Text: as §1

[8] = target: T1, recombinant MTIP-His (61–204 residues) (Plasmodium falciparum, UniProt Q8I4W8 61-204); test: ITC; ITC200, 25 °C, phosphate buffer; MyoA tail in the syringe (100 µM for MTIP, 150 µM for ZA1), 10 µM MTIP or ZA1 in the cell; single site model; conditions: both partners purified
T1 construct: source: E. coli BL21 (DE3), purified (Ni-NTA, native conditions, dialysed against PBS); not shown: His6, C-terminal, kept
T1 sequence: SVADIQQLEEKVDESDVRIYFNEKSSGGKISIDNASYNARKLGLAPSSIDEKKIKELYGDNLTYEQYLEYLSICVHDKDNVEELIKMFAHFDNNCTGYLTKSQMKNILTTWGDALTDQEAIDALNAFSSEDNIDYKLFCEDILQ

ESAT6 [9] = type: cell-based, Mycobacterium tuberculosis; conditions: ESAT6-pTRGnn versus CFP10-pBTnn, average of three independent assays ± standard deviation
ZA1S peptide = target: T2, ZA1S peptide; test: far-Western, overlay or dot blot; 5 µg ZA1S peptide, BSA and non-specific peptide spotted on nitrocellulose; overlaid with 5 µg/mL biotinylated myosin A tail in 1% BSA/PBST, 2 h, room temperature; anti-biotin antibody; conditions: both partners purified
T2 construct: also called shortened ZA1
T2 chain: DIDIDIMHE

[10] = X-gal blue-white selection, DI-EL dicodon library, 30 °C, 48 h

MTIP-pBT (MTIP, bacterial two-hybrid fusion) (from UniProt Q8I4W8 61-204) (domain or fragment)
relative enzyme activity (Miller Units) [1]: 96.1 Miller Units

SGRHVFKELDIELDIDIDIDIDIDIDIELMHDIQLDIELDIDIMHMHDIPGDIDIMHSTMHQLDIELMHPGDIDIQLFKHVAAA [ZA3]
Interaction with myosin A tail in library screening (myosin A tail [2]; [10]): positive interactions

SGRHVFKPGMHELDIELELDIELDIDIDIELDIDIELDIDIDIDIQLYVDIELMHELDIDIRTELELDIPGELEFDIELDIDIFKHVAAA [ZA2]
Interaction with myosin A tail in library screening (myosin A tail [2]; [10]): positive interactions

SGRHVFKQLDIDIDIMHELDIELELDIDIDIMHPGDIDIDIDIDIQLDIELDIMHDIDIDIMHMHQLELELDIFKHVAAA [ZA1]
Heat changes on titration of pre-bound Myosin A-ZA1 complex into MTIP (MTIP): No heat changes are observed
Interaction with myosin A tail (myosin A tail [3]): positive interaction between myosin A and ZA1 that was concentration-dependent
MTIP bound to myosin A tail (myosin A/MTIP complex [4]): The amount of MTIP bound to myosin A tail reduced with increasing ZA1
Kd (myosin A tail [5]): 719 nM
Kd (myosin A-MTIP complex): 57 µM
Colony color change (disruption of myosin A/MTIP complex) (myosin A/MTIP complex [6]; E. coli triple co-transformant, X-gal plate with L-arabinose (2% w/v), 30 °C, 48 h): the color of the colonies changed from blue to white, indicating the disruption of myosin A/MTIP complex
Strength of myosin A/MTIP interaction (β-galactosidase) (myosin A/MTIP complex [6]; L-arabinose gradient 0–4 mM, 3 h, 37 °C, average of three independent assays): A reduction in the strength of interaction was observed with increasing amounts of ZA1
Completeness of myosin A/MTIP disruption (myosin A/MTIP complex [6]; bacterial three-hybrid): we did not find a complete disruption of myosin A/MTIP complex
Interaction with myosin A tail in library screening (myosin A tail [2]): positive interactions
Intensity of blue color on bacterial two-hybrid selection plate (myosin A tail [2]; X-gal plate, versus the other library hits): maximum intensity of blue color
Relative enzyme activity (β-galactosidase) (myosin A tail [2]; myosin A-pTRGnn versus ZA1-pBTnn, average of three independent assays ± standard deviation): 83.48 ± 0.82 Miller units
Interaction with unrelated protein ESAT6 (ESAT6 [7]): no interaction was found

B1: Myosin A tail (798–818 residues), peptide (peptide)
chain: NKNIPSLLRVQAHIRKKMVAQ
notes: source: acquired from Genescript (peptide)
Kd [8]: 452 nM
dH [8]: -4.7 kcal/mol

B2: CFP10: Culture filtrate protein 10 kDa, Mycobacterial protein, positive control partner of ESAT6 (protein)
chain: MAEMKTDAATLAQEAGNFERISGDLKTQIDQVESTAGSLQGQWRGAAGTAAQAAVVRFQEAANKQKQELDEISTNIRQAGVQYSRADEEQQQALSSQMGF
Relative enzyme activity (β-galactosidase), positive control (ESAT6 [9]; experiment of Figure 1c): 79.17 ± 1.67 Miller Units
Relative enzyme activity (β-galactosidase), positive control (ESAT6 [9]; experiment of Figure 2b): 98.02 ± 2.07 Miller units

NKNIPSLLRVQAHIRKKMVAQ (peptide, UniProt Q8IDR3 798-818, looked up, also: biotinylated, also called myosin A peptide; MyoA tail) [biotinylated myosin A tail]
binding result (ZA1S peptide): binds
